Source: patent publication US20020192161A1, “Animal model for evaluating analgesics” (priority 2001, published 2002)
Where two headings read alike, the source gives them in different places.

Assays:
[1] = cited from earlier work; for area under serum drug concentration AUC0-2h: 200 mg dose; for AUC0-2h: 600 mg dose
[2] = Bioavailability of oral ibuprofen crushed tablets in control rats; assay type: in vivo, Sprague-Dawley rats
Method: (§1) The animal models are Adult male Sprague-Dawley rats with body weight of 250-300 g, and which were cared for in accordance with the principles and guidelines of the Canadian Council of Animal Care. All rats were catheterized in the right jugular vein for sample collection.
(§2) The tablets were crushed gently and small pieces were administered into the stomach via a plastic tube followed by 0.5 mL tap water. […] They had free access to water.

[3] = cited from earlier work
[4] = Bioavailability of oral ibuprofen formulations in vagal-suppressed (propantheline-treated, Pain Model) rats; assay type: in vivo; details: male, Sprague-Dawley, rat, plasma, 20 mg/kg
Method: as §1
An animal model having suppressed vagal properties were produced by administering (intraperitoneal injection) to the rats two 20 mg/kg doses of propantheline (test, n=6), an anticholinergic agent with known vagal suppressive properties, the first dose at 2 hours prior to administration of an NSAID, and the second at 1 hour prior.
as §2

[5] = male, Sprague-Dawley, rat, plasma, po, 20 mg/kg

AUC (0-8) ([2]; control rats, 20 mg/kg ibuprofen oral as crushed tablets)	Cmax [2, 5]	Tmax [2, 5]	Cmax [4]	Tmax [4]	Compound	area under serum drug concentration AUC0-2h ([1]; before dental extraction)	AUC0-2h ([1]; after dental extraction)	AUC0-2h ([1]; before dental extraction)	solubility in water [3]	delay in the mean time to peak concentration caused by surgery ([1]; 200 mg and 600 mg doses, dental surgery)
					CC(C)Cc1ccc([C@H](C)C(=O)O)cc1 [S-ibuprofen, S(+)-2-(4-isobutylphenyl)propionic acid]	5.6 mg/L^−1/h	7200 ng·h/mL	14200 ng·h/mL		
					CC(C)Cc1ccc([C@@H](C)C(=O)O)cc1 [R-ibuprofen, R(−)-2-(4-isobutylphenyl)propionic acid]	5.5 mg/L^−1/h	5800 ng·h/mL	14400 ng·h/mL		
139 μg/h/mL^−1	40400 ng/mL	16.8 min	13800 ng/mL	45 min	CC(C)Cc1ccc(C(C)C(=O)O)cc1 (racemic) [ibuprofen, (±)-2-(4-Isobutylphenyl)propionic acid]				less than 1 part of drug in 10,000 parts o	two
